Assay results as given in patent US12103915B2, “TEAD inhibitors and methods of uses thereof” (Insilico Medicine IP Limited, priority 2022, dated 2024).

Key:
[1] = biological target: TEAD3 (Homo sapiens, UniProt Q99594); test: Thermal shift assay TEAD3; format: binding
Procedure, shortened: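 Compounds at 1 or 10 μM (0.1% DMSO, PBS dilution) mixed with 0.1 mg/ml final TEAD3 and thermal shift dye, then run through a qPCR melt to follow protein unfolding.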

[2] = biological target: TEAD2 (Homo sapiens, UniProt Q15562); test: Thermal shift assay TEAD2; format: binding
TEAD2, sequence (Q15562 whole entry, species assumed): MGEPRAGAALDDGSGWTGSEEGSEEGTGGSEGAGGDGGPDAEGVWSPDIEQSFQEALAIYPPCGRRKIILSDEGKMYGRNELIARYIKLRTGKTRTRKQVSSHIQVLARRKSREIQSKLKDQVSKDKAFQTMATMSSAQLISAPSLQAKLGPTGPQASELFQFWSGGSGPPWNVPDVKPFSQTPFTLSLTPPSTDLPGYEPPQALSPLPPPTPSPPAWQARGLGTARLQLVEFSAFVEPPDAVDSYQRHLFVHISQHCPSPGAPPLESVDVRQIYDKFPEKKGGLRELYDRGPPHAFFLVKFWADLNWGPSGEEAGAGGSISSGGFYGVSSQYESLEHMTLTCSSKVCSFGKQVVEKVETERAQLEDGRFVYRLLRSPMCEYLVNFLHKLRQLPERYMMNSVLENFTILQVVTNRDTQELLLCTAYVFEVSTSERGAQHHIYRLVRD
Procedure, shortened: (§1)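 Protein melt reactions contained TEAD1 (0.2 mg/ml final) or TEAD2 (0.08 mg/ml final) plus compound at 1 or 10 μM in 0.1% DMSO. Thermal unfolding was followed by dye fluorescence on a qPCR instrument.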

[3] = Pharmacokinetic profile evaluation in mice; format: in vivo, CD-1 mice; settings: CD-1; mouse, oral administration at 10 mg/kg, plasma
Protocol: Example C: Pharmacokinetic Profile Evaluation
Three CD-1 mice of SPF. (Sino-British SIPPR/BK Lab Animal Ltd, Shanghai.) were intravenously administrated with given compounds (Formulation: 5% DMSO+10% Solutol+85% Saline) or orally gavage administrated with given compounds (Formulation: 5% DMSO+10% Solutol+85% Saline). The blood samples were taken via cephalic vein at timepoints 0.083 h, 0.25 h, 0.5 h, 1 h, 2 h, 4 h, 8 h, and 24 h after intravenous (iv) administration or at timepoints 0.25 h, 0.5 h, 1 h, 2 h, 4 h, 6 h, 8 h, and 24 h after oral gavage administration, 30 μL/time point. Blood samples were placed in tubes containing K2-EDTA and stored on ice until centrifuged. The blood samples were centrifuged at 6800 g for 6 minutes at 2-8° C. within 1 h after collected and stored frozen at approximately −80° C. An aliquot of 20 μL plasma samples were protein precipitated with 400 μL MeOH in which contains 100 ng/mL Verapamil (IS). The mixture was vortexed for 1 min and centrifuged at 18000 g for 10 min. Transfer 400 μL supernatant to 96 well plates. An aliquot of 5 μL supernatant was injected for LC-MS/MS analysis by LC-MS/MS-27 (TQ6500+) instrument. The analytical results were confirmed using quality control samples for intra-assay variation. The accuracy of >66.7% of the quality control samples should be between 80-120% of the known value(s). Standard set of parameters including Area Under the Curve (AUC(0-t)), maximum plasma concentration (Cmax), elimination half-life (T1/2) will be calculated using noncompartmental analysis modules in FDA certified pharmacokinetic program Phoenix WinNonlin 7.0 (Pharsight, USA).

[4] = biological target: TEAD1 (Homo sapiens, UniProt P28347); test: Thermal shift assay TEAD1; format: binding
TEAD1, sequence (P28347 whole entry, species assumed): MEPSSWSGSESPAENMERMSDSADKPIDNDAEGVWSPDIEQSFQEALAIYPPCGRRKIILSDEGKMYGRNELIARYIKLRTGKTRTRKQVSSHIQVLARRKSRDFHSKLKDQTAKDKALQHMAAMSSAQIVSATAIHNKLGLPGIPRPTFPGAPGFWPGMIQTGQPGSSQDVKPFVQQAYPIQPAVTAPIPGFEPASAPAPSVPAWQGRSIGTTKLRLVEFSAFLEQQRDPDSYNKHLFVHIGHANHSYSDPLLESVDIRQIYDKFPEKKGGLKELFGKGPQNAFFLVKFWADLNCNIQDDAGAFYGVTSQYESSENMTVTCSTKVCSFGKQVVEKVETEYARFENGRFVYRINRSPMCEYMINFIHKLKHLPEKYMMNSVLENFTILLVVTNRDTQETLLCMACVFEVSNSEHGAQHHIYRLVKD
Procedure, shortened: as §1

[5] = biological target: TEAD4 (Homo sapiens, UniProt Q15561); test: Thermal shift assay TEAD4; format: binding
TEAD4, sequence (Q15561 whole entry, species assumed): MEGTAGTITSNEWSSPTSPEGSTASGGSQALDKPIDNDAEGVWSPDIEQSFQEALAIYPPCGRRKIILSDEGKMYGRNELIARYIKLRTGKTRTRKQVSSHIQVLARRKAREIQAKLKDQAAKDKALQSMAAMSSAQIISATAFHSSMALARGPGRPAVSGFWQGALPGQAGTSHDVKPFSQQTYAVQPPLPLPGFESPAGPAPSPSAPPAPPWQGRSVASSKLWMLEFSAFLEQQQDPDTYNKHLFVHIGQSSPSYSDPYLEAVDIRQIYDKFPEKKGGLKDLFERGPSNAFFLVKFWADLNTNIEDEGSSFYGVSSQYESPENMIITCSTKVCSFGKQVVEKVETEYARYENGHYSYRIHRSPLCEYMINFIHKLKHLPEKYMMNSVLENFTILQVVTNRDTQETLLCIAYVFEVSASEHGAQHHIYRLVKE
Procedure, shortened: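 Compounds tested at 1 and 10 μM (0.1% DMSO, PBS) against TEAD4 protein at 0.1 mg/ml final. Melting followed by thermal shift dye fluorescence during a qPCR instrument ramp.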

[6] = system: NCI-H226 cells; test: Cell growth assay (CellTiter-Glo); format: cell-based, human; settings: Homo sapiens, NCI-H226, 168 h, 7 days treatment, CellTiter-Glo luminescence, read-out: H226 CTG IC50
[7] = system: human lung cancer NCI-H226 xenograft; test: In vivo anti-tumor efficacy, NCI-H226 xenograft model (TGI); parameters: species or system BALB/c Nude mice; settings: QD, oral, tumor volume at day 21
Protocol: (§2) Example D: In Vivo Pharmacodynamic and Efficacy Study
(§3) The objective of the research is to evaluate the in vivo anti-tumor efficacy of Example 58b, 64, 75a in human lung cancer NCI-H226 xenograft model in BALB/c Nude mice. (Jiangsu GemPharmatech Co., Ltd, female, 6-9 weeks)
(§4) The NCI-H226 cancer cells was maintained in vitro with RPMI1640 medium supplemented with 10% fetal bovine serum at 37° C. in an atmosphere of 5% CO2 in the air. The cells in exponential growth phase will be harvested and quantitated by cell counter before tumor inoculation. Each mouse was inoculated subcutaneously it the right front flank region with NCI-H226 tumor cells (lx 107) in 0.2 ml of PBS mixed with Matrigel (1:1) for tumor development. Animals were randomized when the average tumor volume reached 150-200 mm^3. The test article was administered to the mice orally once a day from the day of grouping, total 21 days (QD×21 Days). Body weight change of animals was monitored regularly as an indicator of drug safety. The major endpoint was to see if the tumor growth could be delayed or mice could be cured. Tumor sizes were measured two times per week in two dimensions using a caliper, and the volume were expressed in mm^3 using the formula: V=0.5a×b^2 where a and b are the long and short diameters of the tumor, respectively.
(§5) The tumor volume were then used for the calculations of TGI. TGI is calculated for each group using the formula: TGI (%)=[1−(Ti−T0)/(Ci−C0)]×100; Ti is the average tumor volume of a treatment group on a given day, T0 is the average tumor volume of the treatment group on the first day of treatment, Ci is the average tumor volume of the vehicle control group on the same day with Ti, and C0 is the average tumor volume of the vehicle group on the first day of treatment. To compare tumor volumes of different groups at a pre-specified day, Bartlett's test was used to check the assumption of homogeneity of variance across all groups.

[8] = Body weight change in NCI-H226 xenograft study; format: in vivo, BALB/c Nude mice; settings: QD, oral, day 21 compared to day 1
Protocol: as §2, §3, §4, §5

TEAD3, sequence (Q99594 whole entry, species assumed): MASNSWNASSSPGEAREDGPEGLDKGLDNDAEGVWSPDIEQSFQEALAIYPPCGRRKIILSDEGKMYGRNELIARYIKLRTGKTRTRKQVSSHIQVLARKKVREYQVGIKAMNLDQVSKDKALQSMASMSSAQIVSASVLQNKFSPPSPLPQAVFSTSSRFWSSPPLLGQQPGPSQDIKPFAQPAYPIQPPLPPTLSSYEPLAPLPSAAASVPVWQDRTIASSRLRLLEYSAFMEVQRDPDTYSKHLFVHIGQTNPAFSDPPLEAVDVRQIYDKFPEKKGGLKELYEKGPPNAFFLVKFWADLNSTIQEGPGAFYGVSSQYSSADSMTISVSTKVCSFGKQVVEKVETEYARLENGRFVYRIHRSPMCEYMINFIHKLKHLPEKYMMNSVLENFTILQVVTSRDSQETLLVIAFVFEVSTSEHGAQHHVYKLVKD

Compound | TEAD3 ΔTm [1] [°C] | TEAD2 ΔTm [2] [°C] | AUC(0-t) [3] [ng·h/mL] | Cmax [3] [ng/mL] | half-life [3] [h] | TEAD1 ΔTm [4] [°C] | TEAD4 ΔTm [5] [°C] | IC50 [6] [nM] | TGI ([7]; 1 mg/kg) [%] | TGI ([7]; 3 mg/kg) [%] | TGI ([7]; 10 mg/kg) [%] | TGI ([7]; 30 mg/kg) [%] | Body weight change ([8]; 1 mg/kg) | Body weight change ([8]; 3 mg/kg) | Body weight change ([8]; 10 mg/kg) | Body weight change ([8]; 30 mg/kg) | TGI ([7]; 60 mg/kg) [%] | Body weight change ([8]; 60 mg/kg)
Cn1cc2cc(-c3ccc(C(F)(F)F)cc3)cc(C3C[C@H]3C(=O)O)c2n1 (mixture of isomers) [Example 2] | 2.7 | 7 | 104000 | 9750 | 5.4 | 8.1 | 11.4 | < 100 | – | – | – | – | – | – | – | – | – | –
Cn1cc2cc(Oc3ccc(C(F)(F)F)cc3)cc(C3C[C@H]3C(=O)O)c2n1 (mixture of isomers) [Example 16] | 13.1 | 12.7 | 676000 | 40100 | 26.4 | 11.6 | 11.8 | 100 to 500 | – | – | – | – | – | – | – | – | – | –
O=C(O)[C@@H]1CC1c1cc(Oc2ccc(C(F)(F)F)cc2)cc2cccnc12 (mixture of isomers) [Example 17] | 11.7 | 14.2 | 497000 | 33700 | 26 | 9.2 | 10.1 | 100 to 500 | – | – | – | – | – | – | – | – | – | –
Cn1ncc2c(C3C[C@H]3C(=O)O)cc(Oc3ccc(C(F)(F)F)cc3)cc21 (mixture of isomers) [Example 18] | 7.4 | 14 | 617000 | 41200 | 11.2 | 8.8 | 9.1 | 100 to 500 | – | – | – | – | – | – | – | – | – | –
CNC(=O)[C@@H]1CC1c1cc(-c2ccc(C(F)(F)F)cc2)cc2c1cnn2C (mixture of isomers) [Example 24] | 0.3 | 4.5 | 70000 | 5530 | 5.2 | 2.4 | 2.4 | 100 to 500 | – | – | – | – | – | – | – | – | – | –
CNC(=O)[C@H]1C[C@@H]1c1cc(Oc2ccc(C(F)(F)F)cc2)cc2cn(C)nc12 (single isomer, unassigned) [Example 34b] | 10.9 | 14.2 | 31800 | 3180 | 2.2 | 10.2 | 11.3 | < 100 | – | – | – | – | – | – | – | – | – | –
Cn1cc2cc(Oc3ccc(C(F)(F)F)cc3)cc([C@H]3C[C@@H]3C(=O)N3CC(O)C3)c2n1 (single isomer, unassigned) [Example 58b] | 10.9 | 12.9 | 17200 | 1710 | 3.6 | 9.2 | 11.3 | < 100 | 95 | 103 | 128 | 145 | +8.2% | +4.0% | +1.6% | +2.9% | – | –
Cn1cc2cc(Oc3ccc(C(F)(F)F)cc3)cc([C@@H]3C[C@H]3C(=O)N3CC[C@H](O)[C@@H](O)C3)c2n1 (single isomer, unassigned) [Example 75a] | 10.0 | 12.2 | 10700 | 1650 | 2.3 | 9.0 | 11.3 | < 100 | – | 90 | 119 | 150 | – | +6.7% | +3.0% | +4.0% | 149 | +1.5%
Cn1cc2cc(Oc3ccc(C(F)(F)F)cc3)cc(C3C[C@H]3C(=O)N3C[C@@H]4C[C@H]3C[C@@H]4O)c2n1 (single isomer, unassigned) [Example 103f] | 9.2 | 9.8 | 51600 | 4120 | 4.8 | 8.2 | 11.1 | < 100 | – | – | – | – | – | – | – | – | – | –
CNS(=O)(=O)CCc1cc(-c2ccc(C(F)(F)F)cc2)cc2cn(C)nc12 [Example 44] | 3.0 | 7.6 | 16100 | 2470 | 2.6 | 9.1 | 10 | < 100 | – | – | – | – | – | – | – | – | – | –
CNS(=O)(=O)CCc1cc(Oc2ccc(C(F)(F)F)cc2)cc2cn(C)nc12 [Example 45] | 4 | 10.3 | 11500 | 3100 | 2.2 | 9.3 | 10.6 | 100 to 500 | – | – | – | – | – | – | – | – | – | –
